Data as given in USRE49850E1, “N-(pyridin-2-yl)-4-(thiazol-5-yl)pyrimidin-2-amine derivatives as therapeutic compounds” (AUCENTRA THERAPEUTICS PTY LTD, priority 2015, dated 2024).
Where two headings read alike, the source gives them in different places.

Tests used:
[1] = target: CDK7H (Homo sapiens, UniProt P50613); assay: Kinase assay CDK7H (radiometric profiling service); type: biochemical; conditions: apparent Ki calculated from Km (ATP) and IC50; read-out: CDK inhibition Ki CDK7H
Protocol: (§1) Eurofins Pharma Discovery or Reaction Biology Corporation Kinase Profiler services were used to measure inhibition of CDKs and other kinases by radiometric assay. Inhibition of CDK4/D1, CDK6/D3 and CDK9/T1 were also determined in-house using ADP Glo Kinase assays (Promega Corporation, Madison, USA). Briefly, the kinase reaction for CDK4/D1 and CDK6/D3 was performed with kinase reaction buffer ([…] Tris base pH 7.5, 20 mM MgCl2, 0.4 mM DTT), 0.1 mg/ml BSA and RB-CTF substrate (retinoblastoma protein1 C-terminal fraction). For CDK9/CyclinT1, the kinase reaction was performed with standard assay buffer and Kinase Dilution Buffer and RBER-IRStide substrate. Serial dilutions of 1:3 were prepared for test compounds for 10 concentrations (from 10 μM to 0.5 nM). The kinase reactions were started by addition of ATP, incubated for 40 min at 37° C. and then stopped by adding 10 μL of ADP Glo reagent. After incubation at room temperature in the dark for 40 min, 20 μL of kinase detection reagent was added per well and incubated for 40 min. Luminescence was measured using an EnVision Multilabel plate reader (PerkinElmer, Buckinghamshire, UK). Positive and negative controls were perfonned in the presence and absence of CDK kinases, respectively. Half-maximal inhibition (IC50) values were calculated using a 4-parameter logistic non-linear regression model with Graphpad prism (Version 6.0). Apparent inhibition constants (Ki) values were calculated from Km (ATP) and IC50 values for the respective kinases.

[2] = target: CDK 2A (Homo sapiens, UniProt P24941); assay: Kinase assay CDK2A (radiometric profiling service); type: biochemical; conditions: apparent Ki calculated from Km (ATP) and IC50; read-out: CDK inhibition Ki CDK 2A
Protocol: as §1

[3] = tested on: MV4-11; assay: Cell viability assay (resazurin, leukemia cell line) MV4-11; type: cell-based, human; conditions: read-out: Anti-proliferative activity GI50 MV4-11
From the text: (§2) Compounds from Example 1 were subjected to a standard MTT (3-(4,5-dimethylthiazol-2-yl)-2,5-diphenyltetrazolium bromide) and resazurin assays on solid tumour cell lines and leukemia cell lines, respectively, as previously reported (Wang S et al., J Med Chem 47:1662-1675, 2004 and Diab S. et al. CheMedChem 9:962-972, 2014).

[4] = target: T1, CDK6D3 (Homo sapiens, UniProt Q00534); assay: Kinase assay CDK6/D3 (radiometric or ADP Glo); type: biochemical; conditions: apparent Ki calculated from Km (ATP) and IC50; read-out: CDK inhibition Ki CDK6D3
T1 construct: purchased Eurofins Pharma Discovery or Reaction Biology Corporation (service)
Protocol: as §1

[5] = target: CDK1B (Homo sapiens, UniProt P06493); assay: Kinase assay CDK1B (radiometric profiling service); type: biochemical; conditions: apparent Ki calculated from Km (ATP) and IC50; read-out: CDK inhibition Ki CDK1B
Protocol: as §1

[6] = tested on: MDA-MB-453; assay: Cell viability assay (MTT, solid tumour cell line) MDA-MB-453; type: cell-based, human; conditions: read-out: Anti-proliferative activity GI50 MDA-MB-453
From the text: as §2

[7] = target: T2, CDK4D1 (Homo sapiens, UniProt P11802); assay: Kinase assay CDK4/D1 (radiometric or ADP Glo); type: biochemical; conditions: apparent Ki calculated from Km (ATP) and IC50; read-out: CDK inhibition Ki CDK4D1
T2 construct: purchased Eurofins Pharma Discovery or Reaction Biology Corporation (service)
Protocol: as §1

[8] = target: T3, CDK9T1 (Homo sapiens, UniProt P50750); assay: Kinase assay CDK9/T1 (radiometric or ADP Glo); type: biochemical; conditions: apparent Ki calculated from Km (ATP) and IC50; read-out: CDK inhibition Ki CDK9T1
T3 construct: purchased Eurofins Pharma Discovery or Reaction Biology Corporation (service)
Protocol: as §1

T2 sequence (P11802 whole entry): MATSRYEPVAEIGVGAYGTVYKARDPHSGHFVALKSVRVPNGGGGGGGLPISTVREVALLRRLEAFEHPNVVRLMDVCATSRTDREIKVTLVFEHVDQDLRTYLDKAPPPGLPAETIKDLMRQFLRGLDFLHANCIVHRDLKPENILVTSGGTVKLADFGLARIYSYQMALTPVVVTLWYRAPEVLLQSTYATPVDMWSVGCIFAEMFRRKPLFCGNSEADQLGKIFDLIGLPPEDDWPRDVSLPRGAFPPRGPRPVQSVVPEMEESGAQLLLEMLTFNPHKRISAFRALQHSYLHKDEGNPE
T2 sequence (P24385 whole entry partner): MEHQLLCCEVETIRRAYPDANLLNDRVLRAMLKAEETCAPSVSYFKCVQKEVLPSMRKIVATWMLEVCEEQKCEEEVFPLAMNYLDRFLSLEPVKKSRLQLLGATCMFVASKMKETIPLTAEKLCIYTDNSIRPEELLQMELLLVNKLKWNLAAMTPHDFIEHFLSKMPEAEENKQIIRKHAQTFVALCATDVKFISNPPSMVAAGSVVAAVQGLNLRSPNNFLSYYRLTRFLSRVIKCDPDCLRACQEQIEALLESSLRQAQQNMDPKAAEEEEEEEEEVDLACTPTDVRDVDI
T3 sequence (P50750 whole entry): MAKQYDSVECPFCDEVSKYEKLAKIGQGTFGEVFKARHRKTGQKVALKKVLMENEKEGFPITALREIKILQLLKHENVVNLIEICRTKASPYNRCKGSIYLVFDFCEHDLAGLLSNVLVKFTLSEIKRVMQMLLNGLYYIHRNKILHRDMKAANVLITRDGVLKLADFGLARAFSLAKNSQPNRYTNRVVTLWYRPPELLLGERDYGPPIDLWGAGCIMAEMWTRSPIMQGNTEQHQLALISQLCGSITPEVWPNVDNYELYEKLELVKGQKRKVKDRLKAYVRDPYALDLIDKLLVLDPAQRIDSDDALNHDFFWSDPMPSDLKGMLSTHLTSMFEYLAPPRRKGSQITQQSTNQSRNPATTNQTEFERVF
T3 sequence (O60563 whole entry partner): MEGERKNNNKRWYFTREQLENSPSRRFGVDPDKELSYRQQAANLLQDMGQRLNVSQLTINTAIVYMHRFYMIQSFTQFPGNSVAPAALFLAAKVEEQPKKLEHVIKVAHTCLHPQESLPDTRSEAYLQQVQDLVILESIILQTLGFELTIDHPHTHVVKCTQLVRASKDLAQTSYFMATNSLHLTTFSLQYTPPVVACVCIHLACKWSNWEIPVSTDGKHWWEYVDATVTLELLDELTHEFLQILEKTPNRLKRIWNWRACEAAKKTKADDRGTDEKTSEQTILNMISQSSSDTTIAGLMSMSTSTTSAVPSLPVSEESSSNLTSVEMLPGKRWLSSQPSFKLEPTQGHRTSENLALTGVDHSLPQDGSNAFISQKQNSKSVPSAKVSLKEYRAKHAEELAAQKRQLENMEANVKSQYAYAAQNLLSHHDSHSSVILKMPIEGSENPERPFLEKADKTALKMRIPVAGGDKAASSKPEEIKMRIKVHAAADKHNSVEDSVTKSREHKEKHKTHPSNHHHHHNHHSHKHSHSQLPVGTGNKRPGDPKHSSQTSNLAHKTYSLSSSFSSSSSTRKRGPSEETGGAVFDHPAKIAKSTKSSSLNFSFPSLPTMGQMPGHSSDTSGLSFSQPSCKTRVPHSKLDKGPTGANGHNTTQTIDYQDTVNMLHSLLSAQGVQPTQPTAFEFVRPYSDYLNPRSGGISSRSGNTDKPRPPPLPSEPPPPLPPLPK
CDK7H, sequence (P50613 whole entry): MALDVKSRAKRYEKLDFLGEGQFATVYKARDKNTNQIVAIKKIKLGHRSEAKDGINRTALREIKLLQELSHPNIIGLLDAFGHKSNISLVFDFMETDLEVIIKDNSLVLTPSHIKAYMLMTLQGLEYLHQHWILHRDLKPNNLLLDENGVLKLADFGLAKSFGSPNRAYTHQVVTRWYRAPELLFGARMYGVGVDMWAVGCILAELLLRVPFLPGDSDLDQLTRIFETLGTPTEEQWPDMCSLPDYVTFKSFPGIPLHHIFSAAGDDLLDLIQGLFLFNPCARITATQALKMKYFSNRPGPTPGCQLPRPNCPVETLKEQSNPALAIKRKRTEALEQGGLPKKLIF
CDK7H, sequence (P51946 whole entry partner): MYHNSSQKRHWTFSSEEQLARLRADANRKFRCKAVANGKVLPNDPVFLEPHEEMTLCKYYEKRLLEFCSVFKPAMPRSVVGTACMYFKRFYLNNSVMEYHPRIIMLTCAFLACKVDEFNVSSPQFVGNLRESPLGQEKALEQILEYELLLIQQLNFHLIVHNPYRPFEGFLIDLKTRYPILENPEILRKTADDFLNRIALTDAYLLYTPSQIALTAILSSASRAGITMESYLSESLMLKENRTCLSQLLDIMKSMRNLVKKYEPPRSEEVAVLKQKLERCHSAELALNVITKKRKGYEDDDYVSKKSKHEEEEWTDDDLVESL
CDK7H, sequence (P51948 whole entry partner): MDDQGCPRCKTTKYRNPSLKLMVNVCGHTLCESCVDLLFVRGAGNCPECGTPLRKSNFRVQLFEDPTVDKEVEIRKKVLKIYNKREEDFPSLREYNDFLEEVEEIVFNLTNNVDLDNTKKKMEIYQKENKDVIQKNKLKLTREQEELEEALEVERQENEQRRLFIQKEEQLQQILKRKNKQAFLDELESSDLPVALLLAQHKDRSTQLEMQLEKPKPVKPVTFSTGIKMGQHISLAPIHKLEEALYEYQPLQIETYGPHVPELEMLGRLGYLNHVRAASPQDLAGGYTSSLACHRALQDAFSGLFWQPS
T1 sequence (Q00534 whole entry): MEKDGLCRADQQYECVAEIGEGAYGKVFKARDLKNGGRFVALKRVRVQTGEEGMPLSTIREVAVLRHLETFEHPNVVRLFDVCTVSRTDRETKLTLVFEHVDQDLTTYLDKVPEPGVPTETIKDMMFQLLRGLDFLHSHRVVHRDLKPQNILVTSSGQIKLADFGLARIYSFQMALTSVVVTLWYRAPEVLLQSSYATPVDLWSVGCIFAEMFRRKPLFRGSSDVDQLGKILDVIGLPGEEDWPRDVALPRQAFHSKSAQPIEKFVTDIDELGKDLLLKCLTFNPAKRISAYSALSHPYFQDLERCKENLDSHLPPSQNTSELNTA
T1 sequence (P30281 whole entry partner): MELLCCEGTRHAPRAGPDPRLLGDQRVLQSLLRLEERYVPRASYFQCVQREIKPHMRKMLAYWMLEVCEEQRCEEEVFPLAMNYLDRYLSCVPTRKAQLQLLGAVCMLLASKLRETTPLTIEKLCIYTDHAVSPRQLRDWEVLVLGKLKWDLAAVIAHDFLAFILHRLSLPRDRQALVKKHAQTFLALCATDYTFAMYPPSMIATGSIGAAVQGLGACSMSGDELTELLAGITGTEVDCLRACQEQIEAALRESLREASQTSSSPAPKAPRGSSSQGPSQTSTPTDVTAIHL
CDK1B, sequence (P06493 whole entry): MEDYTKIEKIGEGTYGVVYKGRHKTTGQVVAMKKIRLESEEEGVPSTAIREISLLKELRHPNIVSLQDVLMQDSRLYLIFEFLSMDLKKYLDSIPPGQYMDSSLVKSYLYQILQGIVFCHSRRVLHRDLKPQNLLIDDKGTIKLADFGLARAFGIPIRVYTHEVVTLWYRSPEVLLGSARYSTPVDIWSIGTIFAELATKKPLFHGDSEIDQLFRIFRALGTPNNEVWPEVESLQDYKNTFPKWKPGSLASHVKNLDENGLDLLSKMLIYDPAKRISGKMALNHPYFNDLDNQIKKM
CDK1B, sequence (P14635 whole entry partner): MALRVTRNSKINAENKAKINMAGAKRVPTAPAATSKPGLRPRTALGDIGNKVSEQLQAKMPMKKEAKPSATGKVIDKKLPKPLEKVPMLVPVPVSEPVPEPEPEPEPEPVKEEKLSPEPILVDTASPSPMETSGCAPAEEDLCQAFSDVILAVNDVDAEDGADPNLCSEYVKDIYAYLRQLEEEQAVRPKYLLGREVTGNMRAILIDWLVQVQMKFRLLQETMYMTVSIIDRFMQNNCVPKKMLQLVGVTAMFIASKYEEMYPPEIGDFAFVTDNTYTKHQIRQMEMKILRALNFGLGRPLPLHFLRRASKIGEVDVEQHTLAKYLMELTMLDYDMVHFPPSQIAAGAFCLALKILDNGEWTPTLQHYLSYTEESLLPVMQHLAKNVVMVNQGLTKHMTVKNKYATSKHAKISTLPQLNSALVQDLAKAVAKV

Molecule | Ki [1] [nM] | Ki [2] [nM] | GI50 ([3]; 72 h) [nM] | Ki [4] [nM] | Ki [5] [nM] | GI50 ([6]; 72 h) [nM] | Ki [7] [nM] | Ki [8] [nM] | GI50 ([3]; Homo sapiens, MV4-11, 72 h) [nM] | GI50 ([6]; Homo sapiens, MDA-MB-453, 72 h) [nM]
5-(2-((5-(4-Ethylpiperazin-1-yl)pyridin-2-yl)amino)-5-fluoropyrimidin-4-yl)-N,4-dimethylthiazol-2-amine [Compound 32] | > 5000 | 665 | 65 ± 2 | 20 | > 5000 | 528 ± 46 | 5 | 2920 | – | –
CC(=O)N1CCN(c2ccc(Nc3nccc(-c4sc(C)nc4C)n3)nc2)CC1 [Compound 1, 1-(4-(6-((4-(2,4-dimethylthiazol-5-yl)pyrimidin-2-yl)amino)pyridin-3-yl)piperazin-1-yl)ethan-1-one] | > 5000 | > 5000 | – | 590 | > 5000 | – | 81 | > 5000 | 1100 ± 345 | > 10000
Cc1nc(C)c(-c2ccnc(Nc3ccc(N4CCNCC4)cn3)n2)s1 [Compound 2, 4-(2,4-dimethylthiazol-5-yl)-N-(5-(piperazin-1-yl)pyridin-2-yl)pyrimidin-2-amine] | > 5000 | > 5000 | – | 245 | > 5000 | – | 55 | > 5000 | 1021 ± 7 | > 10000
Cc1nc(C)c(-c2ccnc(Nc3ccc(N4CCN(C)CC4)cn3)n2)s1 [Compound 3, 4-(2,4-dimethylthiazol-5-yl)-N-(5-(4-methylpiperazin-1-yl)pyridin-2-yl)pyrimidin-2-amine] | > 5000 | 1930 | – | 170 | > 5000 | – | 30 | > 5000 | 53 ± 3 | 378 ± 29
Cc1nc(C)c(-c2nc(Nc3ccc(N4CCNCC4)cn3)ncc2C#N)s1 [Compound 4, 4-(2,4-dimethylthiazol-5-yl)-2-((5-(piperazin-1-yl)pyridin-2-yl)amino)pyrimidine-5-carbonitrile] | > 5000 | > 5000 | – | 117 | > 5000 | – | 31 | 2040 | 296 ± 287 | 1970 ± 404
Cc1nc(C)c(-c2nc(Nc3ccc(N4CCN(C)CC4)cn3)ncc2C#N)s1 [Compound 5, 4-(2,4-dimethylthiazol-5-yl)-2-((5-(4-methylpiperazin-1-yl)pyridin-2-yl)amino)pyrimidine-5-carbonitrile] | > 5000 | > 5000 | – | 27 | > 5000 | – | 70 | > 5000 | 500 ± 247 | 914 ± 98
CC(=O)N1CCN(c2ccc(Nc3ncc(C#N)c(-c4sc(C)nc4C)n3)nc2)CC1 [Compound 6, 2-((5-(4-acetylpiperazin-1-yl)pyridin-2-yl)amino)-4-(2,4-dimethylthiazol-5-yl)pyrimidine-5-carbonitrile] | > 5000 | > 5000 | – | 201 | > 5000 | – | 119 | > 5000 | 2130 ± 969 | > 10000
CCc1nc(C)c(-c2ccnc(Nc3ccc(N4CCNCC4)cn3)n2)s1 [Compound 7, 4-(2-ethyl-4-methylthiazol-5-yl)-N-(5-(piperazin-1-yl)pyridin-2-yl)pyrimidin-2-amine] | > 5000 | 1710 | – | 237 | > 5000 | – | 59 | > 5000 | 606 ± 150 | 3860 ± 220
CCc1nc(C)c(-c2ccnc(Nc3ccc(N4CCN(C)CC4)cn3)n2)s1 [Compound 8, 4-(2-ethyl-4-methylthiazol-5-yl)-N-(5-(4-methylpiperazin-1-yl)pyridin-2-yl)pyrimidin-2-amine] | > 5000 | 1820 | – | 980 | > 5000 | – | 24 | > 5000 | 750 ± 246 | 3010 ± 705
Cc1nc(C(C)C)sc1-c1ccnc(Nc2ccc(N3CCNCC3)cn2)n1 [Compound 13, 4-(2-isopropyl-4-methylthiazol-5-yl)-N-(5-(piperazin-1-yl)pyridin-2-yl)pyrimidin-2-amine] | > 5000 | 241 | – | 30 | 3740 | – | 11 | > 5000 | 29 ± 19 | 703 ± 71
Cc1nc(C(C)C)sc1-c1ccnc(Nc2ccc(N3CCN(C)CC3)cn2)n1 [Compound 14, 4-(2-isopropyl-4-methylthiazol-5-yl)-N-(5-(4-methylpiperazin-1-yl)pyridin-2-yl)pyrimidin-2-amine] | > 5000 | 287 | – | 29 | 3410 | – | 10 | 4180 | 596 ± 231 | > 10000
CCN1CCN(c2ccc(Nc3nccc(-c4sc(C(C)C)nc4C)n3)nc2)CC1 [Compound 15, N-(5-(4-ethylpiperazin-1-yl)pyridin-2-yl)-4-(2-isopropyl-4-methylthiazol-5-yl)pyrimidin-2-amine] | > 5000 | 465 | – | 25 | 3100 | – | 5 | > 5000 | 63 ± 26 | 542 ± 65
CC(=O)N1CCN(c2ccc(Nc3nccc(-c4sc(C(C)C)nc4C)n3)nc2)CC1 [Compound 16, 1-(4-(6-((4-(2-isopropyl-4-methylthiazol-5-yl)pyrimidin-2-yl)amino)pyridin-3-yl)piperazin-1-yl)ethan-1-one] | > 5000 | 246 | – | 209 | 4850 | – | 62 | > 5000 | 457 ± 122 | > 10000
Cc1nc(C(C)C)sc1-c1ccnc(Nc2ccc(N3CCOCC3)cn2)n1 [Compound 17, 4-(2-isopropyl-4-methylthiazol-5-yl)-N-(5-morpholinopyridin-2-yl)pyrimidin-2-amine] | 4690 | 60 | – | 4 | 1440 | – | 1 | 1730 | 649 ± 24 | 1050 ± 203
CNc1nc(C)c(-c2nc(Nc3ccc(N4CCN(Cc5ccccc5)CC4)cn3)ncc2C#N)s1 [Compound 40, 2-((5-(4-benzylpiperazin-1-yl)pyridin-2-yl)amino)-4-(4-methyl-2-(methylamino)thiazol-5-yl)pyrimidine-5-carbonitrile] | > 5000 | > 5000 | – | 36 | > 5000 | – | 16 | 999 | 84 ± 8 | –
CNc1nc(C)c(-c2ccnc(Nc3ccc(N4CCN(Cc5ccccc5)CC4)cc3)n2)s1 [Compound 41, 5-(2-((4-(4-benzylpiperazin-1-yl)phenyl)amino)pyrimidin-4-yl)-N,4-dimethylthiazol-2-amine] | 67 | 37 | – | 225 | 133 | – | 6 | 117 | 38 ± 6 | –
CNc1nc(C)c(-c2nc(Nc3ccc(N4CCN(Cc5ccccc5)CC4)cc3)ncc2C#N)s1 [Compound 42, 2-((4-(4-benzylpiperazin-1-yl)phenyl)amino)-4-(4-methyl-2-(methylamino)thiazol-5-yl)pyrimidine-5-carbonitrile] | 101 | 17 | – | 36 | 89 | – | 1 | 34 | 37 ± 6 | –
CCN1CCN(Cc2ccc(Nc3ncc(F)c(-c4sc(NC5CCCC5)nc4C)n3)nc2)CC1 [Compound 84, N-cyclopentyl-5-(2-((5-((4-ethylpiperazin-1-yl)methyl)pyridin-2-yl)amino)-5-fluoropyrimidin-4-yl)-4-methylthiazol-2-amine] | 630 | – | – | 14 | > 5000 | – | 3 | 3570 | – | 622 ± 208
